Source: EP0427427A2, “Use of arylalkylamides in the treatment of neurodegenerative diseases” (FISONS CORPORATION, priority 1989, dated 1991)
Read-outs that look alike come from different tables or passages of the source.

What was measured:
[1] = tested on: Dogs; experiment: Global ischemia (clamping the ascending aorta), protection of CA1 neurons; conditions: iv, 8 minutes global ischemia, treatment from 30 minutes after reflow, CA1 neurons on day 8
Description: (§1) Dogs - Dogs are subjected to 8 minutes global ischemia (clamping the ascending aorta) and are treated iv with drug at 30 minutes after reflow. Treatment is given 6 hours later, b.i.d. for 2 more days and s.i.d. for 4 additional days. On day 8 the brains are removed and again drug protection of the vulnerable CA1 neurons is assessed. The Toxic doses are determined by administering the drug iv to conscious dogs in incremental doses and observing for side effects (we use preictal behaviour or convulsions as an endpoint).

[2] = tested on: Rats; experiment: 4-vessel occlusion model of stroke, viability of CA1 neurons in the hippocampus; assay type: in vivo; conditions: ip doses of 20mg/kg twice daily for one week, first injection 30 minutes after reflow, 30 minutes 4-vessel occlusion, brains at 8 days
[3] = tested on: Mice; experiment: Antihypoxia studies (time to mortality in a hypoxic environment); assay type: in vivo; conditions: Mus musculus, oral, dose that produces a 50% increase in the time to mortality in an hypoxic environment
Description: Antihypoxia activity, that is, they extension of the lifetime of animals exposed to a hypoxic environment, may be conveniently measured in mice. Groups of mice are tested at various times after the intraperitoneal administration of graded doses of the test compound. The animals' survival time in a temperature controlled hypoxic environment (96% nitrogen and 4% oxygen) is recorded. A statistical comparison is made between coincident vehicle treated animals and the experimental group. […] Other modes of administration can also be used.

[4] = tested on: Mice; experiment: Protection against NMDLA induced seizures (convulsions); assay type: in vivo; conditions: Mus musculus, 5 min, ip, evaluated for 5 minutes following iv injection of 150 mg/kg NMDLA
Description: NMDA blocking activity may be measured by assessing a compound's ability to protect mice from convulsions induced by intravenous administration of 150 m/k of NMDA according to the procedures of Czuczwar et al., (Neurotransmitters, Seizures and Epilepsy III, edited by G. Nistico et al., Raven Press, New York 1986, pages 235-246). […] […] Animals were kept for 60 min after NMDA dosing and mortality was recorded.

[5] = CD50: seizure following ip injection of the compound; conditions: mouse, in vivo, mice, no inverted screen TD50 performed, CD50 = dose when 50% of mice experience a seizure following ip injection
[6] = Inverted screen test of Coughenour et al. (TD50); conditions: mouse, in vivo, mice, oral
[7] = tested on: Mice; experiment: Protection against NMDLA induced mortality; assay type: in vivo; conditions: Mus musculus, 1 h, ip, evaluated over 60 minutes after NMDLA injection (150 mg/kg iv)
Description: NMDA blocking activity may be measured by assessing a compound's ability to protect mice from convulsions induced by intravenous administration of 150 m/k of NMDA according to the procedures of Czuczwar et al., (Neurotransmitters, Seizures and Epilepsy III, edited by G. Nistico et al., Raven Press, New York 1986, pages 235-246). Groups of mice were pretreated by 30 min with the test compound by the oral or intraperitoneal routes and then given NMDA. […] Animals were kept for 60 min after NMDA dosing and mortality was recorded.

[8] = tested on: Dogs; conditions: iv
Description: as §1

[9] = tested on: Dogs; conditions: conscious dogs, iv incremental doses
Description: as §1

[10] = tested on: Rats; experiment: Neurotoxicity TD50, narrow plank walking test; conditions: narrow plank test one hour after administration
Description: Rats - Rats are subjected to the 4-vessel occlusion model of stroke for 30 minutes followed by drug injection at 30 minutes after blood reflow to the brain. The drugs are administered ip twice daily for one week. At 8 days post stroke the brains are removed and protection is determined by determining viability of the vulnerable CA1 neurons in the hippocampus (neutrons associated with short term memory). […] Rats that fall are scored as failures.

Compound	dose active in protecting dogs against stroke [1]	preventing loss of the CA1 neurons [2]	ED50 [3]	ED50 [4]	TD50 [5]	TD50 [6]	ED50 [7]	dose active in protecting dogs against stroke [8]	lowest toxic dose for convulsions [9]	lowest toxic dose for preictal behaviour [9]	ip doses for TD50s relative to neurotoxicity in the rat [10]
CC(Cc1ccccc1)(NC(=O)CN)c1ccccc1 (stereo not drawn) [Compound A, 2-amino-N-(1,2-diphenyl-1-methylethyl)acetamide]	7.5 mg/kg	effective	–	–	–	–	–	–	–	–	–
NCC(=O)NC(Cc1ccccc1)c1ccccc1 (stereo not drawn) [Compound B, 2-amino-N-(1,2-diphenylethyl)acetamide]	–	effective	19.1 mg/kg	33 mg/kg	82.4 mg/kg	236 mg/kg	20.6 mg/kg	5 mg/kg	44 mg/kg	44 mg/kg	47
